Results reported in patent publication US8859235B2, “Methods in cell cultures, and related inventions, employing certain additives” (priority 2009, dated 2014).

Tests used:
E. coli JM109 = test: Growth and GFPuv expression in E. coli JM109, shake flask cultivation in mineral medium; format: cell-based, Escherichia coli; settings: Experiment 2, additive 5 mM, 20 h, mean of two
Description: Precultures are prepared in 250 mL baffled shake flasks containing 25 mL sterile mineral medium [macronutrients in g/L: Glycerol (25), (NH4)2-citrate (1.0), Na2HPO4 2H2O (9.0), KH2PO4 (1.82), NH4Cl (1.52), MgSO4 (0.12), (NH4)2SO4 (0.6); Ampicillin ([…]); micronutrients in mg/L: Na2-EDTA (8.4), thiamine (4.5), Fe(III) citrate (12.5), Na2MoO4 2×H2O (2.5), H3BO3 (3), CoCl2 6×H2O (2.5), CuSO4 5×H2O (0.45) MnCl24×H2O (15), ZnCl2 (8) adjusted to pH 7.0]. Cultures are inoculated with 250 μL of a glycerol stock stored at −80° C. of E. coli JM109 (Promega Inc, Wallisellen, C H; Genotype: endA1, recA1, gyrA96, thi, hsdR17 (rk^−, mk^+), re/A1, supE44, Δ(lac-proAB), [F″ traD36, proAB, laql^qZΔM15]) harboring the plasmid pBAD-GFPuv (Biorad Inc., Reinach, C H; Genbank U62637.1, containing the GFPuv gene under control of the ara promoter; GFP=Green Fluorescent Protein). Precultures are incubated at 37° C. for 10-12 h.
Experimental cultures are performed in a volume of 25 mL of the above described medium in 250 mL baffled shake flasks. Stabilizers according to the invention are added to a final concentration of 5 mM as indicated from sterile stock solutions. Cultures are started by inoculating with the preculture to an optical density at 600 nm (OD600) of 0.25. Growth of the culture is monitored by reading optical density at 600 nm. Cultures are induced by adding L-arabinose to a final concentration of 0.2% (w/v) when the OD600 reaches 0.5. Samples of 1 mL are taken 6 and 20 h after induction for OD600 reading and GFP quantification. For GFP quantification 1 mL of the culture is harvested after 2-4 h and after 20 h after induction. Cells are collected by centrifugation at 16 000 g and the cell pellet is stored at −20° C. for further analysis.
(§1) The measurement of GFP expression by whole cell fluorescence measurements follows the procedure of Scholz et al. (Eur. J. Biochem., 2000,267, 1565-1570). Frozen cell pellets are thawed, resuspended in 1 mL PBS [NaCl (8 g/L), KCl (0.2), of Na2HPO4 (1.44), KH2PO4 (0.24), adjusted to pH 7.4] and subsequently diluted to an optical density of 0.1. GFP fluorescence of whole cells is measured in a Eclipse Fluorometer (Varian) with an excitation wavelength of 400 nm and an emission wavelength of 512 nm. Specific relative fluorescence [RFU/OD600] is calculated by dividing the relative fluorescence emmision units by the optical density of the suspension at 600 nm.

E. coli BL21 = test: Growth and GFPuv expression in E. coli BL21 (DE3), shake flask batch culture in complex medium; format: cell-based, Escherichia coli; settings: additive 5 mM, 20 h after induction
Description: as §1
Precultures are prepared in 250 mL baffled shake flasks containing 25 mL sterile LB medium [Tryptone (10.0 g/L), yeast extract (5.0), NaCl (10.0), kanamycin 30 (mg/L); adjusted to pH 7.0 with NaOH]. Cultures are inoculated with 250 μL of a glycerol stock stored at −80° C. of E. coli BL21 [Novagen, Madison, USA; Genotype: E ompT hsdSB (rB^− mB^−) gal dcm (DE3)] harboring the plasmid pET28a-GFPuv which is obtained by inserting the GFPuv gene (isolated from pBAD-GFPuv through PCR) into the EcoRI site of pET28a (Novagen, Madison, USA) which placed the GFPuv gene under the control of the T7/Lac promotor system. Precultures are incubated at 37° C. for 10-12 h.
Experimental cultures are performed in a volume of 25 mL of the above described medium in 250 mL baffled shake flasks. Stabilizers are added to a final concentration of 5 mM as indicated from sterile stock solutions. Cultures are started by inoculating with the preculture to an OD600 at 600 nm of 0.25. Samples are taken for OD600 measurements. Cultures are induced by adding IPTG (Isopropyl-β-D-thiogalactoside) to a final concentration of 0.5 mM when the OD600 reaches 0.5. Samples of 1 mL are taken after induction for OD600 reading and GFP quantification. For GFP quantification 1 mL of the culture is harvested after 2-4 h and after 20 h after induction. Cells are collected by centrifugation at 16 000 g and the cell pellet is stored at −20° C. for further analysis. Analysis of in vivo GFP fluorescence is performed by the method described in Example 1.

CC1(C)CC(O)CC(C)(C)N1[O] [4-Hydroxy-2,2,6,6-tetramethylpiperidin-1-oxyl]
Growth (Final OD600) (E. coli JM109; control 11.0): 9.5 OD600 | GFP expression (Relative fluorescence unit*OD600^−1) (E. coli JM109; control 1423): 7276 Relative fluorescence unit*OD600^−1 | Growth (Final OD600) (E. coli BL21; Experiment 1, control 3.4): 2.4 OD600 | GFP expression (Relative fluorescence unit*OD600^−1) (E. coli BL21; Experiment 1, control 584): 1909 Relative fluorescence unit*OD600^−1 | Growth (Final OD600) (E. coli BL21; Experiment 2, control 3.3): 2.61 OD600 | GFP expression (Relative fluorescence unit*OD600^−1) (E. coli BL21; Experiment 2, control 195): 319 Relative fluorescence unit*OD600^−1
